For 88 compounds, melting point results are on record in a melting point compilation (Tetko et al.; mined from patent text by program, amines drawn as free bases though some values may be those of a salt).

SMILES strings stand for the structures. Residues, ends and D or L forms follow the SMILES beside them. *: point of attachment. Cbz = O=C(OCc1ccccc1)*; NHPr = CCCN*

In the case of `CCCCCCP1C(O)C(O)P(CCCCCC)C(O)C1O` (stereo not drawn), the melting point was 140 to 147 °C.

In turn, `Nc1ccc2c(ccn2O)n1` came in with a melting point of 227 to 228 °C.

In turn, `Cc1ccc(N2C(=O)C(O)=C(C(=O)c3ccc(C4CCCCC4)cc3)C2c2ccc(OC(F)(F)F)cc2)nn1` (stereo not drawn) displayed a melting point of 283 to 286 °C.

Consider `C=CC1CC2=CC(=O)CCC2(C)C2CCC3(C)C(CCC3(C)O)C12` (stereo not drawn), for which the melting point lay within 116 to 117 °C.

The compound `COC(=O)C(=O)NS(=O)(=O)Cc1ccccc1` registered a melting point of 117 to 122 °C.

`NC(=O)c1ccccc1Nc1ccncc1` came in with a melting point of 206 to 209 °C.

`Cc1c(SCCCSCc2ccc(Cl)s2)ccnc1CSc1ccncc1` came in with a melting point of 76 to 77 °C.

As for `COc1cc2cc(C3=CCN(C)CC3)oc2cc1OC`, the melting point was in the range of 73 to 75 °C.

As to `C=C(C)C(=O)NCc1cc(C)c(O)c(C)c1`, the melting point is 136 to 138 °C.

Compound `CC(C)(C)OC(=O)N1CCN(c2nccc(Oc3ccc(NC(=O)c4cc(F)cc(N5CCCCC5)c4)c4ccccc34)n2)CC1` gave a melting point of 175 to 177 °C.

The compound `CCSC1=NCC(=O)N1c1ccc(C)c(Cl)c1` registered a melting point of 133 to 135 °C.

`CC(=O)OCC(=O)NCc1ccc(-c2csc(N)n2)s1` registered a melting point of 149 to 150 °C.

`CC(=O)n1nc(-c2nc3ccccc3o2)oc1=O` showed a melting point of 231 to 232 °C.

`CC(C)(C)C(NC(=O)c1ccc(Cl)cc1F)NC(=NC#N)Nc1cccnc1` (stereo not drawn): the melting point lay in the range of 183 to 184 °C.

Consider `CC(C)CCOc1c(-c2ccc(S(C)(=O)=O)cc2)cnn(C(C)(C)C)c1=O`, for which the melting point lay within 138 to 139 °C.

In turn, `Cc1ccccc1-n1c(C=Cc2ccccc2F)nc2nccnc2c1=O` had a melting point above 250 °C.

As to `COc1ccc(Oc2ccc(OCc3ccccc3)cc2[N+](=O)[O-])cc1`, the melting point amounted to 120 °C.

The compound `NC(=O)Cc1cccc(C(=O)c2ccc(F)cc2)c1N` returned a melting point of 184 to 186 °C.

On to `CS(=O)(=O)Nc1ccc(Cn2c(=O)n(Cc3ccc(C(F)(F)F)cc3)c3ccccc32)cc1`, for which the melting point lay in the range of 193 to 197 °C.

In turn, `CC(C)CNC(=O)CN1CCN(Cc2ccc3c(c2)NC(=O)C(C)O3)CC1` (stereo not drawn) showed a melting point of 150 °C.

In the case of `COC(=O)c1ccc(-c2nnc(-c3cccc(NS(=O)(=O)c4ccc(C)cc4)c3)o2)cc1`, the melting point lay in the range of 227 to 228 °C.

The compound `CCCNC(=O)C1CCCN1C(=O)C(C)NC(=O)OCc1ccccc1` (stereo not drawn) (Cbz-Ala-Pro-NHPr; configuration not given here) registered a melting point of 117 to 120 °C.

The compound `CC(=O)Oc1c(C)c(C)c2c(c1C)CCC(C)(CCBr)O2` (stereo not drawn) came in with a melting point of 102 to 103 °C.

In turn, `COc1ccc(COc2ccc(-c3ccc(C(=O)O)c(=O)[nH]3)cc2OC)cc1OC` displayed a melting point of 217 to 218 °C.

In turn, `O=S(=O)(CCCl)c1ccc(Cl)cc1` returned a melting point of 91 °C.

Consider `CC(=O)NC12CCCC(C1)C1CCC2C1` (stereo not drawn), for which the melting point fell in the range of 138 to 139 °C.

In turn, `CN(C)c1ccc2c(c1)CN(c1cccc(-c3cc(Nc4ccncn4)c(=O)n(C)c3)c1CO)C2=O` yielded a melting point of 206 to 208 °C.

In turn, `O=C1N(CC2OC(O)C(O)C(O)C2O)c2ccccc2C12COc1cc3c(cc12)OCCO3` (stereo not drawn) gave a melting point of 122 to 126 °C.

Compound `Nc1nc(-c2cc(OCc3ccccc3)no2)cs1` yielded a melting point of 129 to 131 °C.

With `O=C(O)c1ccc(-c2csc(-c3ccncc3)n2)cc1`, the melting point is above 300 °C.

The compound `Oc1ccc2c(c1)COc1c-2cc2ccc(O)cc2c1-c1cccc(F)c1` came in with a melting point of 225 to 227 °C.

Compound `O=C(NCCO)c1cccc(-c2cccc3cc(Cc4ccc(OCC(F)(F)F)nc4)sc23)c1` had a melting point of 123 to 124 °C.

In turn, `CCCS(=O)(=O)c1sc(C(N)=O)c2c1-c1c(cnn1CC)CC2` displayed a melting point of 143 to 144 °C.

In turn, `COC(=O)c1ccc(O)cc1NC(=O)NS(=O)(=O)c1ccc(Cl)cc1` returned a melting point of 244 to 248 °C.

Consider `CNC(=O)n1nc(Oc2c(Cl)cc(C(F)(F)F)cc2Cl)c(Cl)c1C`, for which the melting point lay within 125 to 127 °C.

`COc1ccc(-n2nc3c(cc2=O)CCSc2sc(C)cc2-3)cc1` displayed a melting point of 145 to 146 °C.

In the case of `CCOC(=O)C(=O)Cc1ccnc2c1C(=O)c1ccccc1-2`, the melting point lay within 196 to 197 °C.

For `COC(=O)c1scc(C)c1NC(=S)N1CCN(c2ncnc3cc(OC)c(OC)cc23)CC1`, the melting point is 113 to 116 °C.

In turn, `CCOCn1c(C(=O)c2ccccc2)c(CC)c(=O)[nH]c1=O` gave a melting point of 133 to 134 °C.

The compound `CCOC(=O)N1CC(=O)NC(=O)N1Cc1ccc(Cl)cc1` returned a melting point of 120 °C.

The compound `CC(C(=O)NCCN(C)C)c1ccc(-c2cn3ccccc3n2)cc1` (stereo not drawn) displayed a melting point of 149 to 150 °C.

As to `Nc1ccn(C2C=CC(CO)O2)c(=O)n1` (stereo not drawn), the melting point was in the range of 167 to 169 °C.

Take `Ic1cccc2cc3ccccc3cc12`: the melting point lay within 152 to 154 °C.

In turn, `Clc1ccc2c(c1)C(c1ccccc1)=NCc1ccccc1-2` returned a melting point of 118 to 119 °C.

`CN(C)C=C(C#N)C(=O)NCc1ccccc1Cl` had a melting point of 144 to 146 °C.

`Clc1cccc2[nH]c3c4ccccc4nc-3c(Cl)c12` displayed a melting point of 275 to 277 °C.

`O=C(Nc1ccc(-n2nc(C3CC3)cc2C2CC2)c(F)c1)c1c(F)cccc1F` registered a melting point of 182 to 186 °C.

`COC1CCc2c(c(C)[nH]c(=O)c2C#N)C1` (stereo not drawn) showed a melting point of 257 to 259 °C.

The compound `Cc1nc(-c2ccccc2)cc(-c2cccc(C#N)c2)c1NC(=O)CCN1CCOCC1` gave a melting point of 150 to 152 °C.

On to `CCOC(=O)C1=CC(CF)(CF)Oc2ccc([N+](=O)[O-])cc21`, for which the melting point is 96 to 98 °C.

With `CCN(c1ccc(C#N)cc1)S(=O)(=O)c1ccc(C)cc1`, the melting point is 85.4 to 86.6 °C.

`CCn1c(=O)c(C(N)=O)c(O)c2ccc(C)nc21` had a melting point of 240 to 242 °C.

In the case of `CC(C)(C)c1cccc(C[C@H]2NC(=O)O[C@H]2c2cccc(Cl)c2)c1` (racemic), the melting point lay in the range of 136 to 137 °C.

`COc1cc2nc(N3CCN(c4ccc(O)nn4)CC3)nc(N)c2cc1OC` came in with a melting point of 296 to 297 °C.

`COc1cccc(OC)c1CN1CCC(=O)C(C(c2ccc(F)cc2)c2ccc(F)cc2)C1` (stereo not drawn) came in with a melting point of 125 to 126 °C.

`COc1ccnc(CCc2nc3cc(I)cnc3[nH]2)c1`: the melting point lay in the range of 207 to 208 °C.

Turning to `CON=C1CC(=NOC)c2ccccc2-c2ccccc21`, the melting point is 130 °C.

For the compound `C[C@]12CCC(=O)N[C@@H]1CCc1cc(Sc3ccccc3F)ccc12`, the melting point lay in the range of 196 to 198 °C.

In turn, `CCc1c(C)nc(-c2ncc([N+](=O)[O-])n2C)nc1C` had a melting point of 110 °C.

`Cc1cc(SC2=C(O)C[C@@](CCc3ccc(O)cc3)(C(C)C)OC2=O)c(C(C)C)c2sc(N)nc12` displayed a melting point of 232 to 234 °C.

Take `O=C1NCCN1c1ccc(S(=O)(=O)Nc2ccc(Br)cc2)cc1`: the melting point was 237 to 239 °C.

With `CC(=O)C(C#N)c1ccc2c(c1)Cc1cccnc1O2` (stereo not drawn), the melting point was 245 to 248 °C.

For `CN1C(=O)C(c2c[nH]c3ncccc23)=C(c2cn(S(=O)(=O)c3ccccc3)c3ncccc23)C1=O`, the melting point was 198 °C.

The compound `CS(=O)(=O)OC(c1cccc(C(OS(C)(=O)=O)(C(F)(F)F)C(F)(F)F)c1)(C(F)(F)F)C(F)(F)F` registered a melting point of 125 °C.

`CN(C(=O)CCS(C)(=O)=O)c1nnc(-c2cccnc2)s1` displayed a melting point of 199 to 201 °C.

`OC(CCCl)COc1ccc(-c2ccccc2)cc1` (stereo not drawn) had a melting point of 123 to 124 °C.

`CCOc1c(OC)cc(C(=O)O)c(-c2c(C(=O)O)cc(OC)c3c2OCO3)c1OCC` registered a melting point of 262 to 263 °C.

The compound `O=C1C[C@]2(c3ccccc3)CCCC[C@H]2C(=O)N1` (relative stereo) had a melting point of 180 to 182 °C.

Compound `CCCCNC(=O)Nc1ccc(S(C)=O)cc1C(=O)NCC1CCN(C(c2ccccc2)c2ccccc2)CC1` (stereo not drawn) displayed a melting point of 178 to 179 °C.

For `COC(=O)C(Cc1ccc(OCc2nc3ccc(Oc4ccc(C56CC7CC(CC(C7)C5)C6)cc4)cc3n2C)cc1)OCc1ccc(F)cc1` (stereo not drawn), the melting point fell in the range of 118 to 120 °C.

For the compound `CCOC(=O)c1c[nH]c2cc(Cl)c(F)c(NCC=O)c2c1=O`, the melting point is 213 to 216 °C.

The compound `COC(=O)Cc1c(C(=O)OC)ccn1CCI` showed a melting point of 137 to 138 °C.

`O=c1oc(OCCBr)c(Cl)c2ccccc12` yielded a melting point of 183 to 185 °C.

`CCCCCCCCCCCCCCCCCCNC(=O)OCC(CO)NC(=O)OC(C)(C)C` (stereo not drawn): the melting point was 73 to 75 °C.

In turn, `CS(=O)(=O)c1ccc(-c2nn(Cc3ccc(Cl)cc3Cl)c(=O)cc2-c2ccc(Cl)cc2)cc1` had a melting point of 233 to 234 °C.

`COc1ccc(N(C(=O)CN2C(=O)C(Cc3cc(C)n[nH]3)C(=O)N(c3ccccc3)c3ccccc32)C(C)C)cc1` (stereo not drawn) gave a melting point of 156 to 159 °C.

Take `COC(=O)C(C(=O)OC)[C@H]1C=Cc2ccccc2[C@H]1O` (relative stereo): the melting point fell in the range of 65 to 67 °C.

For the compound `CCCCNC(=O)NS(=O)(=O)c1c(C(=O)OCC)cnn1-c1ccc2ccccc2n1`, the melting point is 140 to 142 °C.

In turn, `Cc1ccc(S(=O)(=O)c2nnnn2C)cc1` gave a melting point of 110 to 111 °C.

`Nc1nc2c(NCc3ccccc3)ncnc2n1C1OC(CO)C(O)C1O` (stereo not drawn) had a melting point of 80 to 82 °C.

The compound `O=C1CCC(N2Cc3c(OCc4ccc(CN5CCC(Oc6ccccc6)CC5)cc4)cccc3C2=O)C(=O)N1` (stereo not drawn) registered a melting point of 180 to 182 °C.

`COc1ccc(Cc2ccc(NC3=NCCN3)cc2)cc1` returned a melting point of 114 to 116 °C.

`O=C(O)CCCCCn1c2ccccc2c(=O)c2ccccc21` yielded a melting point of 167 °C.

Regarding `O=[N+]([O-])c1cccc(-n2ccnc2)c1`, the melting point is 101 to 102 °C.

Turning to `CC(c1ccccc1)N1C(=O)NCc2c(-c3ccccc3)cccc21` (stereo not drawn), the melting point was in the range of 136 to 138 °C.

In turn, `CCOCN(C(=O)CCl)c1c(OC)cccc1OC` registered a melting point of 95 to 97 °C.

As to `CC(C)(C)OC(=O)N1CCC(c2c(F)cc(N3C[C@H](COS(C)(=O)=O)OC3=O)cc2F)CC1`, the melting point is 125 to 126 °C.

As to `CCOc1ccc(N(C)C)cc1-c1ncc(C(=O)O)c(=O)[nH]1`, the melting point lay within 187 to 196 °C.

One may read the melting point as the temperature, or range, at which the solid turns liquid.
